In publication PMC2741501 (Molecular cell, 2009):
Like-named read-outs stand apart in the source and are kept apart here.

Key:
CviR [1] = biological target: T1, CviR (Chromobacterium violaceum, UniProt D3W065); type: cell-based; details: read-out: IC50, inhibition of CviR-dependent vioA-gfp expression; constant 500 nM C6-HSL
[2] = system: CviR binding to the vioA promoter; design: species or system Chromobacterium violaceum; details: for DNA binding of purified CviR loaded with the molecule: vioA promoter probe, CviR 100-500 nM
CviR [3] = biological target: T1, CviR; details: for induction of gfp expression through CviR: even at 100 μM; for maximal gfp expression level compared with C6-HSL / EC50: E. coli vioA-gfp; for EC50: read-out: EC50, CviR activation of gfp expression
[4] = system: C. violaceum killing of C. elegans; experiment: C. elegans lifespan assay on C. violaceum lawns; type: in vivo, Caenorhabditis elegans
CviR [5] = details: molecule added at 50 μM, E. coli
V. harveyi LuxN = V. harveyi LuxN (Vibrio campbellii, UniProt A7MRY4); type: cell-based; details: read-out: IC50, inhibition of bioluminescence
[6] = V. harveyi BB960 (luxPQ mutant)

T1 sequence (D3W065 1-265): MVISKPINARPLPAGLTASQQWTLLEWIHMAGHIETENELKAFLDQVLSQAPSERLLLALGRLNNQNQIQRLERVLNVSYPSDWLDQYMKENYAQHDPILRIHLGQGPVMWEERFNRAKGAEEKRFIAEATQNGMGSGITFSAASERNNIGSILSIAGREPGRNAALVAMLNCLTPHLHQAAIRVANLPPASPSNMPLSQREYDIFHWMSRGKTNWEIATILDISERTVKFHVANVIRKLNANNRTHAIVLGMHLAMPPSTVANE
Chain of V. harveyi LuxN (A7MRY4 whole entry): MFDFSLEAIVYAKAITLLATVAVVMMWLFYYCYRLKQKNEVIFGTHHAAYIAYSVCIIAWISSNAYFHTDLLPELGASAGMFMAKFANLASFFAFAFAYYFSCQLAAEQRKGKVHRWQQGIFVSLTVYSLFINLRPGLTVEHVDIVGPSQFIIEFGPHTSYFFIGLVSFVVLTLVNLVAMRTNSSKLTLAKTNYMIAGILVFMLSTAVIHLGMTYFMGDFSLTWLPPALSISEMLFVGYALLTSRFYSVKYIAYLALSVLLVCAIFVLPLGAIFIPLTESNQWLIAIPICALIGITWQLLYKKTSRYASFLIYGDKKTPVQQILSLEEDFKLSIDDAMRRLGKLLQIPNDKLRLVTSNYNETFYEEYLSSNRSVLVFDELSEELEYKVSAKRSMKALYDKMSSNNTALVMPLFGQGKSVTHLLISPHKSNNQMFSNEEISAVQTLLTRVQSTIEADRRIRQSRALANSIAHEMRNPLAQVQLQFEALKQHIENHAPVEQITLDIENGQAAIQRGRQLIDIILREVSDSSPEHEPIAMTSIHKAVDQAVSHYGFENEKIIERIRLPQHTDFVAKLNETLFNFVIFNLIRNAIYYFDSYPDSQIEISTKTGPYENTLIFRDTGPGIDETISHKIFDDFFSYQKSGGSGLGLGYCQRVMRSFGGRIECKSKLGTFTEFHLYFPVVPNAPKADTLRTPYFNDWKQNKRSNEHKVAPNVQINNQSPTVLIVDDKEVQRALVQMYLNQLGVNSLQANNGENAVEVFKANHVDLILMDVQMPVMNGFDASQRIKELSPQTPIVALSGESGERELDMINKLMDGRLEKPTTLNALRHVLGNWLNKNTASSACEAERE

Row | Compound | IC50 (CviR [1]) [nM] | DNA binding of purified CviR loaded with the molecule [2] | induction of gfp expression through CviR (CviR [3]) | EC50 (CviR [3]) [nM] | also measured
1 | CCCCCCCCCCCC(=O)N[C@H]1CCOC1=O [C12-HSL] | 494 | no ability to bind DNA | do not induce gfp expression |  | 
2 | CCCCCCCC(=O)N[C@H]1CCOC1=O [C8-HSL] |  | bound DNA with similar affinity to CviR loaded with C6-HSL |  | 30 | maximal gfp expression level compared with C6-HSL (CviR [3]): only half of the maximal gfp expression
3 | CCCC(=O)N[C@H]1CCOC1=O [C4-HSL] |  |  |  | 12000 | maximal gfp expression level compared with C6-HSL (CviR [3]): can induce maximal gfp expression
4 | CCCCCCCCCCCCCC(=O)N[C@H]1CCOC1=O [C14-HSL] | 268 | no ability to bind DNA | do not induce gfp expression |  | 
5 | Chlorolactone [CL] | 377 | no ability to bind DNA |  |  | C. elegans median lifespan ([4]; wild type C. violaceum, CL 20 μM, two days without antagonist): seven; CviR folding and solubility when expressed in presence of molecule (CviR [5]): promoted CviR folding and solubility; DNA binding of C6-HSL loaded CviR on addition of antagonist ([2]; 500 nM CviR, antagonist 0-10 μM): DNA binding decreased in a dose dependent manner; IC50 (V. harveyi LuxN; [6]): 14000 nM; IC50 (V. harveyi LuxN; V. harveyi JMH624 + 20 nM AHL): 873 nM; IC50 (V. harveyi LuxN; wild type V. harveyi BB120): 40000 nM
6 | Chloro-thiolactone [CTL] | 1100 | no ability to bind DNA |  |  | CviR folding and solubility when expressed in presence of molecule (CviR [5]): promoted CviR folding and solubility; IC50 (V. harveyi LuxN; [6]): 28000 nM; IC50 (V. harveyi LuxN; wild type V. harveyi BB120): 150000 nM
7 | CCCCCCCCCC(=O)N[C@H]1CCOC1=O [C10-HSL] | 208 | does not abolish DNA binding | do not induce gfp expression |  | 
8 | CCCCCC(=O)N[C@H]1CCOC1=O [C6-HSL] |  | binds DNA with high affinity |  | 75 | C. elegans median lifespan ([4]; C. violaceum cviI mutant, C6-HSL 2 μM): 4 days; DNA probe shift of CL loaded CviR on addition of C6-HSL ([2]; 500 nM CviR, 1 μM C6-HSL): modest shift of the DNA probe
